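Results reflect a 48-hour exposure of cells in 96-well plates to compound at five concentrations. GI50 marks 50% less growth.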 Activity calls are given as the source filed them. Rule as the data show it: active = GI50 up to about 1.1 µM and inactive = higher.
Experiments:
Test in all cases: NCI tumour cell line growth inhibition, 48 h
[1] = test system: A498
[2] = test system: RPMI-8226
[3] = test system: SF-295
[4] = test system: COLO 205
[5] = test system: HCT-116
[6] = test system: SK-MEL-28
[7] = test system: OVCAR-5
[8] = test system: IGROV-1
[9] = test system: HOP-62
[10] = test system: MDA-MB-435
[11] = test system: PC-3
[12] = test system: MDA-N
[13] = test system: T47D
[14] = test system: HCC 2998
[15] = test system: OVCAR-8
[16] = test system: OVCAR-3
[17] = test system: SN12C
[18] = test system: NCI-H226
[19] = test system: OVCAR-4

Measured: GI50

S=c1[nH]n2c(CCCCCCCCc3nnc4sc(=S)[nH]n34)nnc2s1
inactive: [1] > 100 µM | [2] > 100 µM | [3] > 100 µM | [4] > 100 µM | [5] > 100 µM | [6] > 100 µM | [7] > 100 µM | [8] > 100 µM | [9] > 100 µM | [10] > 100 µM | [11] > 100 µM | [12] > 100 µM | [13] > 100 µM | [14] > 100 µM | [15] > 100 µM | [16] > 100 µM | [17] > 100 µM | [18] > 100 µM | [19] > 100 µM

COC(=O)C1=C(CCCCO[Si](C)(C)C(C)(C)C)NC(=O)N2[C@@H](CCOCc3ccccc3)CC[C@H]12
inactive: [1] 53 µM | [2] 23.4 µM | [3] 26 µM | [4] 18 µM | [5] 10.9 µM | [6] 30.5 µM | [7] 33.1 µM | [9] 24.2 µM | [10] 24 µM | [11] 21.1 µM | [12] 17.6 µM | [13] 15.8 µM | [14] 24.4 µM | [16] 13.4 µM | [17] 16.7 µM | [19] 27.5 µM

CC(C)CC(O)P(=O)(O)O.NC1CCCCC1 (stereo unspecified)
inactive: [1] > 100 µM | [2] > 100 µM | [3] > 100 µM | [4] > 100 µM | [5] > 100 µM | [6] > 100 µM | [7] > 100 µM | [9] > 100 µM | [10] > 100 µM | [11] > 100 µM | [12] > 100 µM | [13] > 100 µM | [14] > 100 µM | [16] > 100 µM | [17] > 100 µM | [18] > 100 µM | [19] > 100 µM

COP(=O)(OC)C(O)CC(C)C (stereo unspecified)
inactive: [1] > 100 µM | [2] > 100 µM | [3] > 100 µM | [4] > 100 µM | [5] > 100 µM | [6] > 100 µM | [7] > 100 µM | [9] > 100 µM | [10] > 100 µM | [11] > 100 µM | [12] > 100 µM | [13] > 100 µM | [14] > 100 µM | [16] > 100 µM | [17] > 100 µM | [18] > 100 µM | [19] > 100 µM

Cc1nc(N)sc1/N=N/c1ccccc1Br
inactive: [1] 14.2 µM | [2] 65.3 µM | [3] 44.9 µM | [4] > 54.7 µM | [5] 33.2 µM | [6] 33.1 µM | [7] 41.6 µM | [8] 24.1 µM | [9] 39.3 µM | [10] 24.3 µM | [11] 33.3 µM | [12] 27.9 µM | [13] 15.8 µM | [14] 8.87 µM | [15] > 54.3 µM | [16] 38.2 µM | [17] 34.8 µM | [18] 39.7 µM | [19] > 35.3 µM

COC(=O)[C@]1(c2cc3ccccc3[nH]2)CC2CNC1C1OC(C)(C)OC21 (stereo partly specified)
inactive: [2] 61.4 µM | [3] > 100 µM | [4] > 100 µM | [5] > 100 µM | [6] > 100 µM | [7] > 100 µM | [8] > 100 µM | [9] > 100 µM | [10] 84.5 µM | [11] > 100 µM | [12] 75.9 µM | [13] 52.4 µM | [14] > 100 µM | [15] > 100 µM | [16] > 100 µM | [17] > 100 µM | [18] > 100 µM | [19] > 100 µM

— ChEMBL document CHEMBL1201862, “PubChem BioAssay data set” (2004)
